Reference: ChEMBL document CHEMBL2157907, “Optimization of anti-Trypanosoma cruzi oxadiazoles leads to identification of compounds with efficacy in infected mice” (Bioorg Med Chem, 2012)
Activity calls are given as the source filed them. No cut-off for these calls is given here.

Assays:
[1] = Cytotoxicity against BALB/c mouse splenocytes after 24 hrs by [3H]-thymidine incorporation assay; assay type: cell-based, Splenocyte; conditions: read-out: LC50
[2] = molecular target: Cruzipain (Trypanosoma cruzi) (UniProt P25779); assay: Inhibition of Trypanosoma cruzi cruzain using Z-Phe-Arg-aminomethylcoumarin as substrate at 100 uM after 10 mins
Chain of Cruzipain (Trypanosoma cruzi) (P25779 123-467 limits assumed): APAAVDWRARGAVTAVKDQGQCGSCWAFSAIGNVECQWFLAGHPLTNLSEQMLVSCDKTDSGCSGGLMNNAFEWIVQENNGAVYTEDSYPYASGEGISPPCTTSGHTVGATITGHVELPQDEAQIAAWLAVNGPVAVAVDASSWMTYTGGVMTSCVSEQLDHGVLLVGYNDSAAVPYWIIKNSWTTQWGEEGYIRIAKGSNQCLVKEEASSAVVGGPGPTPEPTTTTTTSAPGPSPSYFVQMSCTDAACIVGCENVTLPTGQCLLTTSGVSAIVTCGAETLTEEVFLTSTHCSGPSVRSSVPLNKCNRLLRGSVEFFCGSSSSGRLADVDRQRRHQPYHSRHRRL

[3] = system: Mus musculus; assay: Toxicity in BALB/c mouse assessed as serum total proteins level at 25 mg/kg, po after 24 hrs; assay type: organism-based; set-up: dose 25 mg/kg, route oral; conditions: in vivo
[4] = system: Mus musculus; assay: Toxicity in BALB/c mouse assessed as serum ALB level at 25 mg/kg, po after 24 hrs; assay type: organism-based; set-up: dose 25 mg/kg, route oral; conditions: in vivo
[5] = system: Mus musculus; assay: Toxicity in BALB/c mouse assessed as serum uric acid level at 25 mg/kg, po after 24 hrs; assay type: organism-based; set-up: dose 25 mg/kg, route oral; conditions: in vivo
[6] = system: Mus musculus; assay: Toxicity in BALB/c mouse assessed as serum Ca2+ level at 25 mg/kg, po after 24 hrs; assay type: organism-based; set-up: dose 25 mg/kg, route oral; conditions: in vivo
[7] = system: Mus musculus; assay: Toxicity in BALB/c mouse assessed as serum cholesterol level at 25 mg/kg, po after 24 hrs; assay type: organism-based; set-up: dose 25 mg/kg, route oral; conditions: in vivo
[8] = system: Mus musculus; assay: Toxicity in BALB/c mouse assessed as serum AML level at 25 mg/kg, po after 24 hrs; assay type: organism-based; set-up: dose 25 mg/kg, route oral; conditions: in vivo
[9] = system: Mus musculus; assay: Toxicity in BALB/c mouse assessed as serum BUN level at 25 mg/kg, po after 24 hrs; assay type: organism-based; set-up: dose 25 mg/kg, route oral; conditions: in vivo
[10] = system: Mus musculus; assay: Toxicity in BALB/c mouse assessed as serum GGT level at 25 mg/kg, po after 24 hrs; assay type: organism-based; set-up: dose 25 mg/kg, route oral; conditions: in vivo
[11] = system: Mus musculus; assay: Toxicity in BALB/c mouse assessed as serum ALT level at 25 mg/kg, po after 24 hrs; assay type: organism-based; set-up: dose 25 mg/kg, route oral; conditions: in vivo
[12] = system: Mus musculus; assay: Toxicity in BALB/c mouse assessed as serum alkaline phosphatase level at 25 mg/kg, po after 24 hrs; assay type: organism-based; set-up: dose 25 mg/kg, route oral; conditions: in vivo
[13] = system: Mus musculus; assay: Toxicity in BALB/c mouse assessed as serum ALB level at 50 mg/kg, po after 24 hrs; assay type: organism-based; set-up: dose 50 mg/kg, route oral; conditions: in vivo
[14] = system: Mus musculus; assay: Toxicity in BALB/c mouse assessed as serum globulin level at 50 mg/kg, po after 24 hrs; assay type: organism-based; set-up: dose 50 mg/kg, route oral; conditions: in vivo
[15] = system: Mus musculus; assay: Toxicity in BALB/c mouse assessed as serum uric acid level at 50 mg/kg, po after 24 hrs; assay type: organism-based; set-up: dose 50 mg/kg, route oral; conditions: in vivo
[16] = system: Mus musculus; assay: Toxicity in BALB/c mouse assessed as serum total proteins level at 50 mg/kg, po after 24 hrs; assay type: organism-based; set-up: dose 50 mg/kg, route oral; conditions: in vivo
[17] = system: Mus musculus; assay: Toxicity in BALB/c mouse assessed as serum Ca2+ level at 50 mg/kg, po after 24 hrs; assay type: organism-based; set-up: dose 50 mg/kg, route oral; conditions: in vivo
[18] = system: Mus musculus; assay: Toxicity in BALB/c mouse assessed as serum cholesterol level at 50 mg/kg, po after 24 hrs; assay type: organism-based; set-up: dose 50 mg/kg, route oral; conditions: in vivo
[19] = system: Mus musculus; assay: Toxicity in BALB/c mouse assessed as serum BUN level at 50 mg/kg, po after 24 hrs; assay type: organism-based; set-up: dose 50 mg/kg, route oral; conditions: in vivo
[20] = system: Mus musculus; assay: Toxicity in BALB/c mouse assessed as serum ALT level at 50 mg/kg, po after 24 hrs; assay type: organism-based; set-up: dose 50 mg/kg, route oral; conditions: in vivo
[21] = system: Mus musculus; assay: Toxicity in BALB/c mouse assessed as serum AML level at 50 mg/kg, po after 24 hrs; assay type: organism-based; set-up: dose 50 mg/kg, route oral; conditions: in vivo
[22] = system: Mus musculus; assay: Toxicity in BALB/c mouse assessed as serum alkaline phosphatase level at 50 mg/kg, po after 24 hrs; assay type: organism-based; set-up: dose 50 mg/kg, route oral; conditions: in vivo
[23] = system: Mus musculus; assay: Toxicity in BALB/c mouse assessed as serum GGT level at 50 mg/kg, po after 24 hrs; assay type: organism-based; set-up: dose 50 mg/kg, route oral; conditions: in vivo
[24] = system: Mus musculus; assay: Toxicity in BALB/c mouse assessed as serum ALB level at 100 mg/kg, po after 24 hrs; assay type: organism-based; set-up: dose 100 mg/kg, route oral; conditions: in vivo
[25] = system: Mus musculus; assay: Toxicity in BALB/c mouse assessed as serum globulin level at 100 mg/kg, po after 24 hrs; assay type: organism-based; set-up: dose 100 mg/kg, route oral; conditions: in vivo
[26] = system: Mus musculus; assay: Toxicity in BALB/c mouse assessed as serum total proteins level at 100 mg/kg, po after 24 hrs; assay type: organism-based; set-up: dose 100 mg/kg, route oral; conditions: in vivo
[27] = system: Mus musculus; assay: Toxicity in BALB/c mouse assessed as serum cholesterol level at 100 mg/kg, po after 24 hrs; assay type: organism-based; set-up: dose 100 mg/kg, route oral; conditions: in vivo
[28] = system: Mus musculus; assay: Toxicity in BALB/c mouse assessed as serum uric acid level at 100 mg/kg, po after 24 hrs; assay type: organism-based; set-up: dose 100 mg/kg, route oral; conditions: in vivo
[29] = system: Mus musculus; assay: Toxicity in BALB/c mouse assessed as serum BUN level at 100 mg/kg, po after 24 hrs; assay type: organism-based; set-up: dose 100 mg/kg, route oral; conditions: in vivo
[30] = system: Mus musculus; assay: Toxicity in BALB/c mouse assessed as serum Ca2+ level at 100 mg/kg, po after 24 hrs; assay type: organism-based; set-up: dose 100 mg/kg, route oral; conditions: in vivo
[31] = system: Mus musculus; assay: Toxicity in BALB/c mouse assessed as serum ALT level at 100 mg/kg, po after 24 hrs; assay type: organism-based; set-up: dose 100 mg/kg, route oral; conditions: in vivo
[32] = system: Mus musculus; assay: Toxicity in BALB/c mouse assessed as serum AML level at 100 mg/kg, po after 24 hrs; assay type: organism-based; set-up: dose 100 mg/kg, route oral; conditions: in vivo
[33] = system: Mus musculus; assay: Toxicity in BALB/c mouse assessed as serum GGT level at 100 mg/kg, po after 24 hrs; assay type: organism-based; set-up: dose 100 mg/kg, route oral; conditions: in vivo
[34] = system: Mus musculus; assay: Toxicity in BALB/c mouse assessed as mortality at 25 to 100 mg/kg, po; assay type: organism-based; set-up: dose 25-100 mg/kg, route oral; conditions: in vivo
[35] = system: Mus musculus; assay: Toxicity in BALB/c mouse assessed as serum alkaline phosphatase level at 100 mg/kg, po after 24 hrs; assay type: organism-based; set-up: dose 100 mg/kg, route oral; conditions: in vivo
[36] = system: Trypanosoma cruzi; assay: Induction of kinetoplast enlargement in trypomastigotes of Trypanosoma cruzi Y at 3.5 uM after 24 hrs by […] electron microscopic analysis; assay type: functional, organism-based
[37] = system: Trypanosoma cruzi; assay: Induction of endoplasmic reticulum degeneration in trypomastigotes of Trypanosoma cruzi Y at 3.5 uM after 24 hrs by […] electron microscopic analysis; assay type: functional, organism-based
[38] = system: Trypanosoma cruzi; assay: Induction of golgi apparatus degeneration in trypomastigotes of Trypanosoma cruzi Y at 3.5 uM after 24 hrs by […] electron microscopic analysis; assay type: functional, organism-based
[39] = system: Trypanosoma cruzi; assay: Induction of mitochondria degeneration in trypomastigotes of Trypanosoma cruzi Y at 3.5 uM after 24 hrs by […] electron microscopic analysis; assay type: functional, organism-based
[40] = system: Trypanosoma cruzi; assay: Induction of ultrastructural changes in trypomastigotes of Trypanosoma cruzi Y assessed as plasma membrane protrusions at 10 uM after 24 hrs by scanning electron microscopic analysis; assay type: functional
[41] = system: Trypanosoma cruzi; assay: Antitrypanosomal activity against trypomastigotes of Trypanosoma cruzi Y in BALB/c mouse peritoneal exudate macrophages assessed as reduction of parasite infection to cells at 10 ug/ml treated simultaneously with parasite measured after 2 hrs; assay type: functional, organism-based
[42] = system: Trypanosoma cruzi; assay: Antitrypanosomal activity against trypomastigotes of Trypanosoma cruzi Y infected in BALB/c mouse peritoneal exudate macrophages assessed as reduction of parasite level at 10 ug/ml after 4 days; assay type: functional, organism-based
[43] = system: Trypanosoma cruzi; assay: Antitrypanosomal activity against epimastigotes of Trypanosoma cruzi Y after 5 days; assay type: functional, organism-based; conditions: 120 h
[44] = system: Trypanosoma cruzi; assay: Antitrypanosomal activity against trypomastigotes of Trypanosoma cruzi Y infected in rhesus monkey LLC-MK2 cells assessed parasite viability after 24 hrs; assay type: functional, organism-based; conditions: LLC-MK2, 24 h
[45] = Therapeutic index, ratio of LC50 for BALB/c mouse splenocytes to IC50 for Trypanosoma cruzi Y; conditions: read-out: Ratio LC50/IC50
[46] = system: Trypanosoma cruzi; assay: Antitrypanosomal activity against trypomastigotes of Trypanosoma cruzi Y infected in BALB/c mouse assessed as reduction of parasite level in blood at 50 mg/kg, po administered after 5 days of postinfection qd for 5 days; assay type: functional, organism-based; set-up: dose 50 mg/kg
[47] = system: Mus musculus; assay: Toxicity in BALB/c mouse assessed as serum globulin level at 25 mg/kg, po after 24 hrs; assay type: organism-based; set-up: dose 25 mg/kg, route oral; conditions: in vivo

Cc1ccc(-c2noc(C(=O)N/N=C/c3ccc4c(c3)OCO4)n2)cc1
CC50 at 24 h [1]: > 100 µg/mL
inhibition [2]: 49%

COc1cc(/C=N/NC(=O)c2nc(-c3ccc(F)cc3)no2)ccc1O
CC50 at 24 h [1]: > 100 µg/mL
inhibition [2]: 63%

O=C(N/N=C/c1ccc2c(c1)OCO2)c1nc(-c2ccccc2)no1
CC50 at 24 h [1]: > 100 µg/mL
inhibition [2]: 32%

O=C(N/N=C/c1ccc2c(c1)OCO2)c1nc(-c2ccc(Cl)cc2)no1
Activity [3]: 4.75 g/dL
Activity [4]: 2.35 g/dL
Activity [5]: 1.65 mg/dL
Activity [6]: 9.45 mg/dL
Activity [7]: 53 mg/dL
Activity [8]: 1183 U/L
Activity [9]: 17.8 mg/dL
Activity [10]: 1 U/L
Activity [11]: 32.5 U/L
Activity [12]: 148 U/L
Activity [13]: 2.67 g/dL
Activity [14]: 2.16 g/dL
Activity [15]: 1.46 mg/dL
Activity [16]: 4.86 g/dL
Activity [17]: 9.45 mg/dL
Activity [18]: 59.5 mg/dL
Activity [19]: 18.07 mg/dL
Activity [20]: 36 U/L
Activity [21]: 1268 U/L
Activity [22]: 142.7 U/L
Activity [23]: 0.67 U/L
Activity [24]: 2.36 g/dL
Activity [25]: 2.73 g/dL
Activity [26]: 5.1 g/dL
Activity [27]: 54.5 mg/dL
Activity [28]: 2 mg/dL
Activity [29]: 13.7 mg/dL
Activity [30]: 9.56 mg/dL
Activity [31]: 29.67 U/L
Activity [32]: 1170 U/L
Activity [33]: 1 U/L
Activity [34]: Non-toxic
Activity [35]: 155.5 U/L
Activity [36]: Active
Activity [37]: Active
Activity [38]: Active
Activity [39]: Active
Activity [40]: 80%
Activity [41]: Active
CC50 at 24 h [1]: > 100 µg/mL
Activity [42]: Active
IC50 [43]: 7.5 µM
IC50 [44]: 3.5 µM
inhibition [2]: 42%
selectivity ratio [45]: 50
Activity [46]: Active
Activity [47]: 2.4 g/dL

COc1cc(/C=N/NC(=O)c2nc(-c3ccc(O)cc3)no2)ccc1O
CC50 at 24 h [1]: > 100 µg/mL
inhibition [2]: 25%

O=C(N/N=C/c1ccc2c(c1)OCO2)c1nc(-c2ccc(O)cc2)no1
CC50 at 24 h [1]: > 100 µg/mL
inhibition [2]: 17%

O=C(N/N=C/c1ccc2c(c1)OCO2)c1nc(-c2ccc([N+](=O)[O-])cc2)no1
CC50 at 24 h [1]: > 100 µg/mL

COc1ccc(-c2noc(C(=O)N/N=C/c3ccc4c(c3)OCO4)n2)cc1
CC50 at 24 h [1]: > 100 µg/mL
inhibition [2]: 44%

COc1cc(/C=N/NC(=O)c2nc(-c3ccccc3)no2)ccc1O
CC50 at 24 h [1]: > 100 µg/mL
inhibition [2]: 47%
